What is called inhibition is the relative decrease from the control value, in per cent. The IC50 is the concentration that gives 50% inhibition. Read a low IC50 as greater potency.

Data set [1] can be described thus: Inhibition of Hh signaling pathway in Shh-LIGHT2 incorporated mouse NIH 3T3 cells assessed as downregulation of Gli1 gene expression by luciferase reporter gene assay. As to conditions: NIH3T3. Format: cell-based. For orientation: A reporter such as luciferase makes a cellular process visible.
Data set [2] in a line: Cytotoxicity against mouse TM3 cells assessed as cell viability after 48 hrs by Cell Titer Glo assay. Format: cell-based. As to conditions: read-out: LD50.
Data set [3] can be described thus: Inhibition of Hh signaling pathway in Sufu deficient MEF cells assessed as downregulation of Ptch1 mRNA expression at 10 uM after 24 hrs by qRT-PCR analysis. Format: cell-based. As to conditions: Mus musculus. In general terms: Quantitative PCR measures a nucleic acid by following its amplification.
Data set [4] is described as follows: Inhibition of Hh signaling pathway in mouse TM3 cells assessed as downregulation of Gli1 gene expression after 48 hrs by luciferase reporter gene assay. In kind it is cell-based. As to conditions: TM3, 48 h.
The nature of data set [5]: Inhibition of Hh signaling pathway in Sufu deficient MEF cells assessed as downregulation of Gli1 mRNA expression at 10 uM after 24 hrs by qRT-PCR analysis. Format: cell-based. As to conditions: Mus musculus.
Data set [6] in a line: Inhibition of luciferase (unknown origin) expressed in BMP-responsive element stable reporter cells. In kind it is cell-based.
For data set [7], the target named is Protein smoothened (Homo sapiens) (UniProt Q99835). The data set can be described thus: Displacement of BODIPY-cyc from SMO receptor (unknown origin) transfected in HEK293T cells at 1 uM after 16 hrs by laser-scanning confocal microscopic analysis. As to conditions: HEK-293T. Format: cell-based.
The target is the same in data set [8]. The data set can be described thus: Displacement of BODIPY-cyc from SMO receptor (unknown origin) transfected in HEK293T cells at 10 uM after 16 hrs by laser-scanning confocal microscopic analysis. In kind it is cell-based. As to conditions: HEK-293T.
For data set [9], the target named is 3',5'-cyclic-AMP phosphodiesterase 4D (Homo sapiens, UniProt Q08499). The data set can be described thus: Inhibition of PDE4D (unknown origin) preincubated for 5 mins followed by cAMP addition measured after 15 mins by PDE-Glo phosphodiesterase assay.
A short description of data set [10]: Inhibition of Hh signaling pathway in Sufu deficient MEF cells assessed as downregulation of Ptch1 mRNA expression at 0.1 uM after 24 hrs by qRT-PCR analysis. In kind it is cell-based. As to conditions: Mus musculus.
A short description of data set [11]: Inhibition of Hh signaling pathway in Sufu deficient MEF cells assessed as downregulation of Gli1 mRNA expression at 0.1 uM after 24 hrs by qRT-PCR analysis. In kind it is cell-based. As to conditions: Mus musculus.
Data set [12] concerns the target Protein smoothened (Homo sapiens) (UniProt Q99835). As to the kind of experiment: Displacement of BODIPY-cyc from SMO receptor (unknown origin) transfected in HEK293T cells at 200 nM after 16 hrs by laser-scanning confocal microscopic analysis. In kind it is cell-based. As to conditions: HEK-293T.

The source made the active and inactive calls. No cut-off for these calls is given here.

Sequence of Protein smoothened (Homo sapiens) (Q99835 whole entry): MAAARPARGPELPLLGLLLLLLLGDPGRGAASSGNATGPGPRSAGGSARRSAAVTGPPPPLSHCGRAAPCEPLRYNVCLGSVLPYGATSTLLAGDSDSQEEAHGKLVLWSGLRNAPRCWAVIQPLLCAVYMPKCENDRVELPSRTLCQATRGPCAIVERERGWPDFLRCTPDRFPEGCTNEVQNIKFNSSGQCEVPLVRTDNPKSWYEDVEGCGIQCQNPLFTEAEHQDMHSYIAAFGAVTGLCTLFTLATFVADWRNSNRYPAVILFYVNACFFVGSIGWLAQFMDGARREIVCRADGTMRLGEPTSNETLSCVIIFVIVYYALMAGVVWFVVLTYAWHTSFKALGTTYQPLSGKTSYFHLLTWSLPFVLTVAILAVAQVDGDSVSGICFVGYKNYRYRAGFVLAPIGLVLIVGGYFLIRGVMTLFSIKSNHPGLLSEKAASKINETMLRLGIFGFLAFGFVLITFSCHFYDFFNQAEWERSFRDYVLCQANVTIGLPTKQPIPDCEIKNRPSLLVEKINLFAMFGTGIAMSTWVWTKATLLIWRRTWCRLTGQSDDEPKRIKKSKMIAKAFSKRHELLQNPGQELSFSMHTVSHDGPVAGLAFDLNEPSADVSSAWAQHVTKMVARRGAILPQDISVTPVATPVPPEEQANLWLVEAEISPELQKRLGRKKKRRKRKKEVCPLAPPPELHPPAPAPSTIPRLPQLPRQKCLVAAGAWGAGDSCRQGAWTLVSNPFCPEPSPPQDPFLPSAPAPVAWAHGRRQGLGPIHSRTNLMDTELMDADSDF
Sequence of 3',5'-cyclic-AMP phosphodiesterase 4D (Q08499 whole entry): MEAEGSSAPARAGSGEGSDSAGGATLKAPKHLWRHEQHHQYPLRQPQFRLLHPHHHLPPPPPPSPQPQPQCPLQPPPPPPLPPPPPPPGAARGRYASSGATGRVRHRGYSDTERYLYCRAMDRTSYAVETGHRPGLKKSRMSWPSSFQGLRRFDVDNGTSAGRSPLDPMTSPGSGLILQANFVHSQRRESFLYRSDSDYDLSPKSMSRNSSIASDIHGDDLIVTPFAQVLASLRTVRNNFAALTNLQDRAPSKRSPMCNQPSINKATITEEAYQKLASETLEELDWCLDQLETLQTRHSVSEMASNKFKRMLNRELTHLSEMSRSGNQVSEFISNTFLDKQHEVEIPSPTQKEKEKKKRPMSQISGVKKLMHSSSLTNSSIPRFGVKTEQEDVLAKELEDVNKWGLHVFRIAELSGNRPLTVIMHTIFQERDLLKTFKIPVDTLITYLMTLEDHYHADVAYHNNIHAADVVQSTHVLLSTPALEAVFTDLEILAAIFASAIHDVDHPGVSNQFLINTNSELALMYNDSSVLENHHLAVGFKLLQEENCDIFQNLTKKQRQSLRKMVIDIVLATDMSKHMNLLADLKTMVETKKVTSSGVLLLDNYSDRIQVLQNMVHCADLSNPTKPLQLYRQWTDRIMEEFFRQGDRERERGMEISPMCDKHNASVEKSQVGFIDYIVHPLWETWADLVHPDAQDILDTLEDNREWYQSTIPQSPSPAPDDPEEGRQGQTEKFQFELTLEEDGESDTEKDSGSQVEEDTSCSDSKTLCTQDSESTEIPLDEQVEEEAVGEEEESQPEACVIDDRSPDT

For the molecule `CN(C)c1ccccc1CN1CCCN(Cc2ccccc2N(C)C)C1c1ccncc1`, the EC50 turned out to be 5 µM in [1] and 9.27 µM in [4] (read-out: EC50). Also, in [2], the CC50 at 48 h was above 50 µM. Moreover, the inhibition in data set [3] turned out to be 52.8%; in data set [5] it was 43.8%.

For the molecule `O=C(CSc1nc2sccc2c(=O)n1C1CC1)c1ccccc1`, the CC50 at 48 h in [2] was above 50 µM. The inhibition result in [6] and in data set [7] was “inactive” each time. Besides, the inhibition was -0.3% in [3] and 13.6% in data set [5]. Moreover, the EC50 in data set [4] (read-out: EC50) was determined as 0.082 µM.

Regarding `C=C(C)Cn1c(SCC(=O)c2cccs2)nc2ccccc2c1=O`, the CC50 at 48 h in [2] was above 50 µM. For the same molecule, in data set [4] (read-out: EC50), the EC50 was above 20 µM.

On to `O=C(CSc1nc2sccc2c(=O)n1C1CC1)c1cccs1`, for which the inhibition result in data set [8] and in data set [6] was “inactive” each time. Also, the CC50 at 48 h in [2] was above 50 µM. For the same molecule, the inhibition is -3.3% in data set [3] and 5.5% in data set [5]. In addition, the EC50 in data set [4] (read-out: EC50) turned out to be 0.933 µM.

Consider `O=C(COc1nc2sccc2c(=O)n1C1CC1)c1ccccc1`, for which, in [2], the CC50 at 48 h was above 50 µM. The EC50 in [4] (read-out: EC50) was above 20 µM.

On to `C=C(C)Cn1c(SCC(=O)c2ccccn2)nc2sc3c(c2c1=O)CCCC3`, for which the CC50 at 48 h in data set [2] was above 50 µM. For the same molecule, the EC50 in data set [4] (read-out: EC50) is above 20 µM.

For `C=CCn1c(SCC(=O)c2cccs2)nc2sc3c(c2c1=O)CCCC3`, in [2], the CC50 at 48 h is above 50 µM. Further, the EC50 in [4] (read-out: EC50) stood at 2.36 µM.

`C=C(C)Cn1c(SCC(=O)c2ccccc2)nc2sc3c(c2c1=O)CCCC3`: the CC50 at 48 h in data set [2] was above 50 µM. In addition, the inhibition in data set [3] was 60.4%; in [5], 64.8%. Further, in data set [4] (read-out: EC50), the EC50 turned out to be 5.7 µM. The molecule also displayed an IC50 in [9] of 0.965 µM.

On to `O=C(CSc1nc2sc3c(c2c(=O)n1-c1ccccc1)CCCC3)c1cccs1`, for which the CC50 at 48 h in data set [2] is above 50 µM. Moreover, in data set [4] (read-out: EC50), the EC50 turned out to be 8.25 µM.

Turning to `O=C(CSc1nc2ccccc2c(=O)n1C1CC1)c1ccccc1`, the CC50 at 48 h in data set [2] is above 50 µM. Besides, in data set [4] (read-out: EC50), the EC50 was 1.16 µM.

`C=C(C)Cn1c(SCC(=O)N2CCCCC2C)nc2sc3c(c2c1=O)CCCC3` (configuration not stated): the CC50 at 48 h in data set [2] stood at 16.7 µM. In addition, the inhibition in data set [3] was found to be 49.2%; in [5], 35%. Also, in data set [4] (read-out: EC50), the EC50 is 2.32 µM.

For the molecule `CC(O)(CSc1nc2sccc2c(=O)n1C1CC1)c1ccccc1` (configuration not stated), the CC50 at 48 h in data set [2] was above 50 µM. In addition, in [4] (read-out: EC50), the EC50 amounted to 0.948 µM.

As to `O=C(CSc1nc2ccccc2c(=O)n1C1CC1)c1cccs1`, the inhibition entry in data set [8] and in data set [6] was “inactive” in each case. Moreover, the CC50 at 48 h in data set [2] was above 50 µM. The inhibition in data set [3] came to 9.9%; in [5] it was 10.3%. For the same molecule, the EC50 in data set [4] (read-out: EC50) is 0.685 µM.

Turning to `C=C(C)Cn1c(SCC(=O)c2cccs2)nc2sc3c(c2c1=O)CCOC3`, the CC50 at 48 h in [2] is above 50 µM. Moreover, in [4] (read-out: EC50), the EC50 was above 20 µM.

Take `C=C(C)Cn1c(SCC(=O)N2CCCCC2)nc2sc3c(c2c1=O)CCCC3`: the CC50 at 48 h in data set [2] worked out at 24.6 µM. Further, the EC50 in data set [4] (read-out: EC50) was found to be 10.7 µM.

Regarding `CS(=O)(=O)c1ccc(C(=O)Nc2ccc(Cl)c(-c3ccccn3)c2)c(Cl)c1` [VISMODEGIB], in data set [2], the CC50 at 48 h was above 50 µM. The EC50 in data set [4] (read-out: EC50) is 0.013 µM.

In the case of `Cc1c(C(=O)Nc2ccc(N3C[C@@H](C)O[C@@H](C)C3)nc2)cccc1-c1ccc(OC(F)(F)F)cc1` [SONIDEGIB], in [2], the CC50 at 48 h is above 50 µM. In addition, the values for the inhibition in [10] and in data set [11] were -0.2% and 5.8%, respectively. The EC50 in data set [4] (read-out: EC50) worked out at 0.0012 µM.

As for `C=C(C)Cn1c(SCC(=O)c2cccs2)nc2sc3ccccc3c2c1=O`, the CC50 at 48 h in data set [2] is above 50 µM. Moreover, the EC50 in [4] (read-out: EC50) was above 20 µM.

Consider `C=C(C)Cn1c(SCC(=O)c2ccncc2)nc2sc3c(c2c1=O)CCCC3`, for which, in data set [2], the CC50 at 48 h is above 50 µM. Also, the EC50 in [4] (read-out: EC50) turned out to be 19.8 µM.

For the molecule `C=C(C)Cn1c(SCC(=O)c2cccs2)nc2sccc2c1=O`, in data set [2], the CC50 at 48 h is above 50 µM. Besides, the EC50 in data set [4] (read-out: EC50) was 0.931 µM.

On to `C=C(C)Cn1c(SCC(=O)c2cccs2)nc2sc3c(c2c1=O)CCSC3`, for which the CC50 at 48 h in [2] is above 50 µM. For the same molecule, the EC50 in [4] (read-out: EC50) stood at 4.57 µM.

`CCCn1c(SCC(=O)c2cccs2)nc2sc3c(c2c1=O)CCCC3`: the CC50 at 48 h in data set [2] is above 50 µM. For the same molecule, the results for the inhibition in [3] and in data set [5] were 39.9% and 44.9%, respectively. The EC50 in data set [4] (read-out: EC50) amounted to 1.3 µM. In data set [9], this molecule returned an IC50 of 0.486 µM.

For `O=c1c2ccsc2nc(SCC(O)c2ccccc2)n1C1CC1` (configuration not stated), the inhibition result in [8] and in data set [6] was “inactive” each time. Besides, the CC50 at 48 h in data set [2] was above 50 µM. Moreover, the inhibition is -4.8% in data set [3] and 3.2% in [5]. This molecule returned an IC50 in [9] of 6.07 µM.

As to `CC1=C2C[C@H]3[C@@H](CC=C4CC(=O)CC[C@@]43C)[C@@H]2CCC12OC1C[C@H](C)CN(CCNC(=O)CCCCCNC(=O)CCc3ccccc3)C1[C@H]2C` (single isomer, unassigned), the inhibition entry in data set [12] was “Active”.

For the molecule `C=C(C)Cn1c(SCC(=O)c2cccnc2)nc2sc3c(c2c1=O)CCCC3`, the CC50 at 48 h in data set [2] stood at 35.4 µM. Also, the EC50 in [4] (read-out: EC50) amounted to 11.1 µM.

In the case of `C=C(C)Cn1c(SCC(=O)c2nccs2)nc2sc3c(c2c1=O)CCCC3`, the CC50 at 48 h in [2] was above 50 µM. Besides, the EC50 in data set [4] (read-out: EC50) was above 20 µM.

As to `C=C(C)Cn1c(SCC(=O)c2cccs2)nc2sc3c(c2c1=O)CCNC3`, the CC50 at 48 h in [2] amounted to 20.1 µM. The EC50 in data set [4] (read-out: EC50) worked out at 6.4 µM.

Take `O=C(CSc1nc2sc3c(c2c(=O)n1CC1CCC1)CCCC3)c1cccs1`: the CC50 at 48 h in data set [2] came to 45.6 µM. Further, the EC50 in [4] (read-out: EC50) worked out at 1.99 µM.

As for `C=C(C)Cn1c(SCC(=O)c2cccs2)nc2sc3c(c2c1=O)CCCC3`, the inhibition result in data set [8] and in [6] was “inactive” in each case. The CC50 at 48 h in data set [2] was above 50 µM. For the same molecule, the inhibition in data set [3] came to 32.2%; in data set [5] it was 46.5%. Besides, the EC50 was 1.34 µM in data set [4] (read-out: EC50) and below 1 µM in data set [4] (read-out: pEC50 (converted)). In data set [9], this molecule yielded an IC50 of 0.38 µM.

With `O=C(CNc1nc2sccc2c(=O)n1C1CC1)c1ccccc1`, in data set [2], the CC50 at 48 h was above 50 µM. Moreover, the EC50 in data set [4] (read-out: EC50) is above 20 µM.

For the molecule `O=C(CSc1nc2sc3c(c2c(=O)n1CC1CC1)CCCC3)c1cccs1`, in data set [2], the CC50 at 48 h is above 50 µM. Further, the EC50 in data set [4] (read-out: EC50) is 2.07 µM.

`C=C(C)Cn1c(SCC(=O)N2CCOCC2)nc2sc3c(c2c1=O)CCCC3`: in data set [2], the CC50 at 48 h is above 50 µM. In data set [4] (read-out: EC50), the EC50 is above 20 µM.

As for `O=C(CSc1nc2sc3c(c2c(=O)n1C1CC1)CCCC3)c1cccs1`, the CC50 at 48 h in data set [2] is above 50 µM. Moreover, the inhibition was determined as 26.5% in [3] and 26.8% in data set [5]. Also, the EC50 in data set [4] (read-out: EC50) was determined as 1.89 µM.

Source of the values: ChEMBL document CHEMBL3784940 (Bioorg Med Chem Lett, 2016).
